Source: ChEMBL document CHEMBL1201862, “PubChem BioAssay data set” (2004)
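Test compounds were applied to cells in 96-well plates for 48 hours at 5 doses. Abbreviation: GI50, concentration required for 50% inhibition of growth.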 Calls of active or inactive are those of the source. Cut-off read from the data, not from the text of the source: active = GI50 up to about 1.1 µM and inactive = higher.

Experiments:
Experiment in all cases: growth of human tumour cells (NCI), 48 h
ACHN = test system: ACHN
HCC 2998 = test system: HCC 2998
MDA-MB-435 = test system: MDA-MB-435
SK-MEL-28 = test system: SK-MEL-28
OVCAR-5 = test system: OVCAR-5
DU-145 = test system: DU-145
RXF 393 = test system: RXF 393
SN12C = test system: SN12C
UACC-257 = test system: UACC-257
HCT-15 = test system: HCT-15
HCT-116 = test system: HCT-116
MOLT-4 = test system: MOLT-4
KM12 = test system: KM12
U-251 = test system: U-251
786-0 = test system: 786-0
OVCAR-8 = test system: OVCAR-8
SF-268 = test system: SF-268
EKVX = test system: EKVX
NCI/ADR-RES = test system: NCI/ADR-RES
T47D = test system: T47D

Structure (SMILES)	GI50 (ACHN)	GI50 (HCC 2998)	GI50 (MDA-MB-435)	GI50 (SK-MEL-28)	GI50 (OVCAR-5)	GI50 (DU-145)	GI50 (RXF 393)	GI50 (SN12C)	GI50 (UACC-257)	GI50 (HCT-15) [µM]	GI50 (HCT-116)	GI50 (MOLT-4)	GI50 (KM12)	GI50 (U-251)	GI50 (786-0)	GI50 (OVCAR-8)	GI50 (SF-268)	GI50 (EKVX)	GI50 (NCI/ADR-RES)	GI50 (T47D)
COc1ccc(-c2c(C#N)c(N)nc(S)c2C#N)cc1	71 µM (inactive)	23.4 µM (inactive)	17.3 µM (inactive)	37.7 µM (inactive)	> 100 µM (inactive)	34.8 µM (inactive)	33.2 µM (inactive)	29.1 µM (inactive)	44.6 µM (inactive)	33.3	29.4 µM (inactive)	17.1 µM (inactive)	41.8 µM (inactive)	40.5 µM (inactive)	21.1 µM (inactive)	36.7 µM (inactive)	30.7 µM (inactive)	36.1 µM (inactive)	50 µM (inactive)	
CC(=O)NC(Cc1c[nH]c2ccccc12)C(=O)O (configuration not stated)	> 100 µM (inactive)		> 100 µM (inactive)	> 100 µM (inactive)	> 100 µM (inactive)	> 100 µM (inactive)	> 100 µM (inactive)	> 100 µM (inactive)	26.2 µM (inactive)	> 100	> 100 µM (inactive)		> 100 µM (inactive)	> 100 µM (inactive)	> 100 µM (inactive)	> 100 µM (inactive)	> 100 µM (inactive)	> 100 µM (inactive)	> 100 µM (inactive)	> 100 µM (inactive)
C/C=C1/CC(C(=O)OC)N(C(=O)OCc2ccccc2)C1=S (configuration not stated)	> 100 µM (inactive)	7.73 µM (inactive)	> 100 µM (inactive)	> 100 µM (inactive)	> 100 µM (inactive)	> 100 µM (inactive)	> 100 µM (inactive)		> 100 µM (inactive)	> 100	> 100 µM (inactive)	> 100 µM (inactive)	> 100 µM (inactive)	> 100 µM (inactive)	> 100 µM (inactive)	> 100 µM (inactive)	> 100 µM (inactive)	84.3 µM (inactive)	> 100 µM (inactive)	
O=C(CN1CCOCC1)c1ccc2c(c1)oc(=O)n2CCN1CCCC1	> 100 µM (inactive)		> 100 µM (inactive)	> 100 µM (inactive)	> 100 µM (inactive)	> 100 µM (inactive)	> 100 µM (inactive)	> 100 µM (inactive)	> 100 µM (inactive)	> 100	> 100 µM (inactive)	> 100 µM (inactive)	> 100 µM (inactive)	> 100 µM (inactive)	> 100 µM (inactive)	> 100 µM (inactive)	> 100 µM (inactive)	> 100 µM (inactive)	> 100 µM (inactive)	
CCOC(=O)N/N=C(\Cc1ccc([N+](=O)[O-])cc1)OCC	> 100 µM (inactive)	> 100 µM (inactive)	> 100 µM (inactive)		> 100 µM (inactive)	> 100 µM (inactive)	> 100 µM (inactive)	> 100 µM (inactive)	> 100 µM (inactive)	> 100	> 100 µM (inactive)	> 100 µM (inactive)	> 100 µM (inactive)	> 100 µM (inactive)	> 100 µM (inactive)	> 100 µM (inactive)	> 100 µM (inactive)	> 100 µM (inactive)	> 100 µM (inactive)	
O=C1C(C(O)(C(F)(F)F)C(F)(F)F)CCC1C(O)(C(F)(F)F)C(F)(F)F (configuration not stated)	1.8 µM (inactive)	0.323 µM (active)	13.2 µM (inactive)	3.16 µM (inactive)	9.98 µM (inactive)	7.96 µM (inactive)	0.346 µM (active)	0.684 µM (active)	7.67 µM (inactive)	28.3	0.556 µM (active)	0.341 µM (active)	0.946 µM (active)	13.5 µM (inactive)	3.87 µM (inactive)	8.75 µM (inactive)	5.7 µM (inactive)	8.13 µM (inactive)	2.33 µM (inactive)	
Cc1noc2cccc(O)c12	> 100 µM (inactive)	> 100 µM (inactive)		> 100 µM (inactive)	> 100 µM (inactive)		> 100 µM (inactive)	> 100 µM (inactive)	> 100 µM (inactive)	> 100	> 100 µM (inactive)	> 100 µM (inactive)	> 100 µM (inactive)	> 100 µM (inactive)	> 100 µM (inactive)	> 100 µM (inactive)	> 100 µM (inactive)	> 100 µM (inactive)		
COc1ccc(OC)c(NC(=O)C(=O)Nn2c(S)nc3ccccc3c2=O)c1	> 100 µM (inactive)	> 100 µM (inactive)	> 100 µM (inactive)	> 100 µM (inactive)	> 100 µM (inactive)		> 100 µM (inactive)	> 100 µM (inactive)	> 100 µM (inactive)	> 100	> 100 µM (inactive)	> 100 µM (inactive)	> 100 µM (inactive)	> 100 µM (inactive)	> 100 µM (inactive)	> 100 µM (inactive)	> 100 µM (inactive)	82.2 µM (inactive)	> 100 µM (inactive)	> 100 µM (inactive)
CCOC(=O)c1nc2ccc(C(F)(F)F)cc2nc1NCc1ccc(OC)cc1	92.5 µM (inactive)		> 100 µM (inactive)		> 100 µM (inactive)		> 100 µM (inactive)		74 µM (inactive)	82.8	53.1 µM (inactive)	31.3 µM (inactive)	36 µM (inactive)	> 100 µM (inactive)	> 100 µM (inactive)	> 100 µM (inactive)	> 100 µM (inactive)	> 100 µM (inactive)	68.4 µM (inactive)	80.7 µM (inactive)
COC1(C2c3ccccc3CCN2C(=O)OC(C)(C)C)C(=O)C(c2ccccc2)=C1N(C)C (configuration not stated)	33.5 µM (inactive)		22.9 µM (inactive)	62.4 µM (inactive)	74.5 µM (inactive)	55.8 µM (inactive)	30.2 µM (inactive)	17.1 µM (inactive)	40.6 µM (inactive)	30.9	25.7 µM (inactive)	43.3 µM (inactive)	34.4 µM (inactive)	37.2 µM (inactive)	26.9 µM (inactive)	68.7 µM (inactive)	45.1 µM (inactive)	40.6 µM (inactive)	21.1 µM (inactive)	53.7 µM (inactive)
CC(C)(C)c1cc(C2COC(c3cc(C(C)(C)C)c(O)c(C(C)(C)C)c3)CO2)cc(C(C)(C)C)c1O (configuration not stated)	> 100 µM (inactive)		> 100 µM (inactive)	> 100 µM (inactive)	> 100 µM (inactive)	> 100 µM (inactive)	> 100 µM (inactive)	> 100 µM (inactive)	> 100 µM (inactive)	> 100	51.6 µM (inactive)		> 100 µM (inactive)	90.4 µM (inactive)	> 100 µM (inactive)	> 100 µM (inactive)	> 100 µM (inactive)	> 100 µM (inactive)	> 100 µM (inactive)	> 100 µM (inactive)
COc1ccc2c(c1)CN1C(=N2)CSC1c1c(Cl)cccc1[N+](=O)[O-] (configuration not stated)	30.5 µM (inactive)	22.7 µM (inactive)	20.1 µM (inactive)	18.5 µM (inactive)	26.4 µM (inactive)		22.5 µM (inactive)	17.5 µM (inactive)	17.2 µM (inactive)	16.6	15.6 µM (inactive)	12.6 µM (inactive)	19.5 µM (inactive)	18.7 µM (inactive)	25.9 µM (inactive)	30.1 µM (inactive)	20 µM (inactive)	25.4 µM (inactive)	15.1 µM (inactive)	31 µM (inactive)
O=c1[nH]c(=O)n(COCc2ccccc2)c2ccc(Br)cc12	27.5 µM (inactive)		> 100 µM (inactive)	> 100 µM (inactive)	> 100 µM (inactive)	> 100 µM (inactive)	> 100 µM (inactive)	> 100 µM (inactive)	> 100 µM (inactive)	71.4	> 100 µM (inactive)	> 100 µM (inactive)	> 100 µM (inactive)	> 100 µM (inactive)	> 100 µM (inactive)	90.8 µM (inactive)		96.8 µM (inactive)	37 µM (inactive)	
CC(=O)OCC(OC(C)=O)C1C[C@H]2O[C@@H]3[C@H](C[C@H]2O1)O[C@@]1(C[C@@H]3C)C[C@H](C)[C@@H]2O[C@]3(C[C@@H]2O1)C[C@H]1O[C@H]2[C@H](C)[C@H]4OC(=O)C[C@H]5CC[C@@H]6OC7[C@H]8O[C@]9(CC[C@H]%10CC(=O)[C@H](CC[C@H]%11C[C@@H](C)C(=O)C(C[C@@H]4O[C@H]2C[C@H]1O3)O%11)O%10)CC8O[C@@H]7[C@@H](O9)[C@H]6O5 (some centres not stated)	0.0627 µM (active)	0.003 µM (active)	0.000195 µM (active)	0.011 µM (active)		0.00423 µM (active)	0.00283 µM (active)	0.0142 µM (active)		0.00635	0.00234 µM (active)	0.0184 µM (active)	0.00183 µM (active)	0.00506 µM (active)	0.00308 µM (active)	0.00964 µM (active)	0.00509 µM (active)	0.0201 µM (active)	0.102 µM (active)	
COc1cc2c3c(n(C)c(=O)c2cc1OC)-c1cc2c(cc1/C3=C\CCCCl)OCO2	29.7 µM (inactive)	23 µM (inactive)		89.7 µM (inactive)	> 100 µM (inactive)		12.9 µM (inactive)		36.9 µM (inactive)	> 100		6.68 µM (inactive)	23.8 µM (inactive)	25.2 µM (inactive)	16.7 µM (inactive)	49.4 µM (inactive)	43.6 µM (inactive)	54.6 µM (inactive)	46.8 µM (inactive)	30.3 µM (inactive)
